Results from ChEMBL document CHEMBL1201862, “PubChem BioAssay data set” (2004).
Active and inactive are the calls of the source.

Key:
Melanocortin receptor 4 = Melanocortin receptor 4 (Homo sapiens, UniProt P32245); format: functional, cell-based;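 note: Cell-based assay with luminescence read-out, confirmatory dose-response testing for agonist activity of biased ligands at MC4R; human U2OS cells with tagged receptor and beta-arrestin; potency of agonists that increase receptor coupling to beta-arrestin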
Sequence of Melanocortin receptor 4 (P32245 whole entry): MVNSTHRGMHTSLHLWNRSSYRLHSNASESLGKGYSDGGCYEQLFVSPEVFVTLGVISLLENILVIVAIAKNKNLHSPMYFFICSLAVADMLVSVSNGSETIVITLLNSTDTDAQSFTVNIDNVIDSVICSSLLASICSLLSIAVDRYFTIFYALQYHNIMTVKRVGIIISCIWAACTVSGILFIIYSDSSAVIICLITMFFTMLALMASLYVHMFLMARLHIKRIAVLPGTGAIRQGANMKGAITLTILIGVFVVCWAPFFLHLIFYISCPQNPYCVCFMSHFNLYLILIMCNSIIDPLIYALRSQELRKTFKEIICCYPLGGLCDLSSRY

[1] = viability loss in HEK293T cells – cell-based, cherry-picks, cytotoxicity control for HIV Vif inhibitor project, dose response (AID 652208); format: functional
Beta-galactosidase = Beta-galactosidase (Escherichia coli, UniProt Q8VNN2); test: Dose response counterscreen for EBI2 assay utilizing the enzyme, b-galactosidase.; format: functional
Sequence of Beta-galactosidase (Q8VNN2 whole entry): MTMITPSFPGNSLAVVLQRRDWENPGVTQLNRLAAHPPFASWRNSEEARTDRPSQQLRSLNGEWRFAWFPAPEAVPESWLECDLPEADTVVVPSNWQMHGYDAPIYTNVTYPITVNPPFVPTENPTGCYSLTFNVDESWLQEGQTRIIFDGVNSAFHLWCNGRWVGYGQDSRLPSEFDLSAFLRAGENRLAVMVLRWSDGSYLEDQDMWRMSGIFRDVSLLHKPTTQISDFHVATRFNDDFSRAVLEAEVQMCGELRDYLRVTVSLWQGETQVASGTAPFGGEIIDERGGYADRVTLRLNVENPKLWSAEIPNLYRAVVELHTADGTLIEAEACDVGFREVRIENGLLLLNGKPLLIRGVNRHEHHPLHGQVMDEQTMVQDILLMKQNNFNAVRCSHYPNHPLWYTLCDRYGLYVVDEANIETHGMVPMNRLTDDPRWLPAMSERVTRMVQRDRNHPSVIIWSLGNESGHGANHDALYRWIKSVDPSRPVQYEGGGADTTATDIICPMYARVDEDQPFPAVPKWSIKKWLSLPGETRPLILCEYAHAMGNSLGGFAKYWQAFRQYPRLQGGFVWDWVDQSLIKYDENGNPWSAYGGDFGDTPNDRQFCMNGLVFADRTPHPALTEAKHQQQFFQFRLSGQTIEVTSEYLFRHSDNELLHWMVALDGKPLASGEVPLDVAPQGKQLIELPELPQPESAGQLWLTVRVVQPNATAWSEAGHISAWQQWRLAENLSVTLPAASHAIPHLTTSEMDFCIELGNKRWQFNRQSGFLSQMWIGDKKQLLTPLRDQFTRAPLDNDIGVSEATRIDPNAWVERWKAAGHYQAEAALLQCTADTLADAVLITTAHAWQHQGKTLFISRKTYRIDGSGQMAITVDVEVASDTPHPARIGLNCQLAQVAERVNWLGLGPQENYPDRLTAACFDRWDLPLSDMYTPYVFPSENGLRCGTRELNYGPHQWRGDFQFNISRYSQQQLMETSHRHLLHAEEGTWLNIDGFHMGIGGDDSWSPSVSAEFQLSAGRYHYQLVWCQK

[2] = T. cruzi growth inhibition in host cells, dose response, cell-based, plate reader, dry powder, set 2 (AID 652275); format: functional
Caspase-6 = Caspase-6 (Homo sapiens, UniProt P55212); test: inhibition of CASP6 peptide cleavage – biochemical, VEID-R110 fluorescence, cherry-pick, dose response (AID 720632)
Sequence of Caspase-6 (P55212 24-179 limits assumed): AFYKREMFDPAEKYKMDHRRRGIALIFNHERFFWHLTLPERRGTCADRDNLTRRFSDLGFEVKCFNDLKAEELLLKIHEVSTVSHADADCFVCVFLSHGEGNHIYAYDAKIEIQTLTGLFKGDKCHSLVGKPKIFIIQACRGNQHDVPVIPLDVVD
Sequence of Caspase-6 (P55212 194-293 limits assumed): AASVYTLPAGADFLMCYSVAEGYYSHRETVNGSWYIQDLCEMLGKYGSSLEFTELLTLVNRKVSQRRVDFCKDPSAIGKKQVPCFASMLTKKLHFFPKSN

Caspase-7 = Caspase-7 (Homo sapiens, UniProt P55210); test: caspase-7 enzyme inhibition, selectivity check – biochemical, DEVD-R110 fluorescence, cherry-pick, selectivity assay for caspase-6 inhibitor project, dose response (AID 743295); format: functional
Sequence of Caspase-7 (P55210 24-198 limits assumed): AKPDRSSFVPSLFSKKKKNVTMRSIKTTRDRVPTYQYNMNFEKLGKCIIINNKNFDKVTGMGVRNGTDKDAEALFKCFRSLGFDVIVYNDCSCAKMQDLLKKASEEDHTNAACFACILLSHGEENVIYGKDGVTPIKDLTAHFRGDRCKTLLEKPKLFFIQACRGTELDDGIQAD
Sequence of Caspase-7 (P55210 207-303 limits assumed): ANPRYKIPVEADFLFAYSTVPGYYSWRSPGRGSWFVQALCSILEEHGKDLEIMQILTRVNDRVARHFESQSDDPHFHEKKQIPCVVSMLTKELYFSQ

Caspase-8 = Caspase-8 (Homo sapiens, UniProt Q14790); test: inhibitors of purified CASP8 protease – biochemical, Z-IETD-R110 fluorescence, cherry-picked samples, selectivity assay for caspase-6 inhibitor project, dose response (AID 743294)
Sequence of Caspase-8 (Q14790 217-374 limits assumed): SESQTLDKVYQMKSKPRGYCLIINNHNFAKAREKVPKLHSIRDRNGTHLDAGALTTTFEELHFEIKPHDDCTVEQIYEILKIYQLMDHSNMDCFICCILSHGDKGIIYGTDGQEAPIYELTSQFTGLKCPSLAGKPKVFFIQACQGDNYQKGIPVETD
Sequence of Caspase-8 (Q14790 385-479 limits assumed): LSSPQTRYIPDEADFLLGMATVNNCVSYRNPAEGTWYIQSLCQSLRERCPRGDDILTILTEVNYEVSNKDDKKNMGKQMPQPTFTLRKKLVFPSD

Protein Tat = Protein Tat (Human immunodeficiency virus type 1 group M subtype B (isolate HXB2)(HIV-1), UniProt P04608); format: functional;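 note: tat binding to TAR RNA read out by fluorescence polarization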
Sequence of Protein Tat (P04608 whole entry): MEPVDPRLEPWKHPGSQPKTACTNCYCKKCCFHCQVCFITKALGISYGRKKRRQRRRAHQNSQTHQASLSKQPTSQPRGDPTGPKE

[3] = viability loss in THP-1 monocytes – THP-1 cells, cytotoxicity control for Vif-APOBEC3G degradation inhibitor project, dose response (AID 1117359); format: functional; details: THP-1
[4] = target: Fructose-bisphosphate aldolase (Mycobacterium tuberculosis, UniProt P9WQA3); test: Fluorescence-based biochemical high throughput dose response assay for inhibitors of the fructose-bisphosphate aldolase (FBA) of M. tuberculosis.; format: functional
Sequence of Fructose-bisphosphate aldolase (P9WQA3 whole entry): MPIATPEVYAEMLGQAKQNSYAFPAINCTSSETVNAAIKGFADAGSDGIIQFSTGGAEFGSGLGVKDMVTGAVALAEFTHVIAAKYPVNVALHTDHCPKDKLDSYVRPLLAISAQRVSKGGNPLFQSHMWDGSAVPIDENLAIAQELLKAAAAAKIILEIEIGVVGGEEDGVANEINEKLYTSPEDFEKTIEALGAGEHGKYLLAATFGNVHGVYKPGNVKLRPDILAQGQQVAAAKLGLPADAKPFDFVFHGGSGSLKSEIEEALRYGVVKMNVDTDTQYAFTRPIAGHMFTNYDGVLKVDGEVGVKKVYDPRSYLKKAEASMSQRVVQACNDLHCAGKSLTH

[5] = loss of viability in HeLa cells – cell-based, ATP luminescence, dry powder, cytotoxicity control, dose response (AID 652117); format: functional
[6] = target: Protein disulfide-isomerase (Homo sapiens, UniProt P07237); test: inhibition of PDI-mediated insulin reduction – biochemical, turbidity, dry powder samples, set 2, confirmation (AID 652146)
Sequence of Protein disulfide-isomerase (P07237 whole entry): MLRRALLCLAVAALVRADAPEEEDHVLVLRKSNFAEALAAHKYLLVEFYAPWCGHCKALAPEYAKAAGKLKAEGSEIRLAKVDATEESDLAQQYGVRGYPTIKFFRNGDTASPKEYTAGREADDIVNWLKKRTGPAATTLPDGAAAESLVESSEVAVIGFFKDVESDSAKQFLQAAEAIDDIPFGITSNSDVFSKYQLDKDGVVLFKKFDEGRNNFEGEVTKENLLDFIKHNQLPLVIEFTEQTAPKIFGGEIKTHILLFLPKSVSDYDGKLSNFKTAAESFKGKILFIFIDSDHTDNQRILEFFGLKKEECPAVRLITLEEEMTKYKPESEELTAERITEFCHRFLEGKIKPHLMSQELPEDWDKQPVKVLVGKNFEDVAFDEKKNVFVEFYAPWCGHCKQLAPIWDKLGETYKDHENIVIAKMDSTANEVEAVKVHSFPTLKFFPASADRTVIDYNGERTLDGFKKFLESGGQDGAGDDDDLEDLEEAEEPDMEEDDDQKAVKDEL

NC(CCc1ccccc1)c1csc(Nc2ccc(C(=O)c3ccccc3)cc2)n1 (configuration not stated)
EC50 (Melanocortin receptor 4): > 89.2 µM (inactive) | AC50 [1]: 27.7 µM (active)

COc1cccc(C(=O)N2CCN(C(=O)COc3ccc4ccccc4c3)CC2)c1
IC50 (Beta-galactosidase): > 80 µM (inactive)

CC(C)N1CC2(CN(Cc3ccccc3Cl)C2)Oc2c(NC(=O)c3ccncc3)cccc2C1=O
AC50 [2]: 0.463 µM (active)

O=C(c1cccc(-n2cccc2)c1)N1CCN(S(=O)(=O)c2ccccc2)CC1
AC50 (Caspase-6): 0.433 µM (active) | AC50 (Caspase-7): > 70 µM (inactive) | AC50 (Caspase-8): 28.1 µM (active) | IC50 (Protein Tat): > 100 µM (active) | CC50 [3]: > 40 µM (active)

COc1ccc2nc(C)cc(C(=O)O)c2c1
IC50 [4]: 1.16 µM (active)

CCOC(=O)C1(CCOc2ccccc2)CCN(Cc2cccc(Cl)c2)CC1
AC50 [5]: 32.3 µM (active) | AC50 [6]: > 30 µM (inactive)
